# According to PubChem BioAssay (NCI):
#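 The concentration for 50% growth inhibition is given as GI50. TGI: concentration producing complete growth inhibition.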
# Legend:
# Experiment in all cases: growth of human tumour cells (NCI), 384-well format
# [1] = system: A498 renal
# [2] = system: HL-60(TB) leukemia
# [3] = system: MDA-MB-231 breast
# [4] = system: IGROV1 ovarian
# [5] = system: NCI-H322M lung
# [6] = system: ACHN renal
# [7] = system: OVCAR-4 ovarian
# [8] = system: A549 NSCLC
# [9] = system: MALME-3M melanoma
# [10] = system: K-562 leukemia
# [11] = system: TK-10 renal
# [12] = system: NCI-H522 lung
# [13] = system: HOP-62 NSCLC
# [14] = system: HCT-116 colon
# [15] = system: MDA-MB-468 breast
# [16] = system: RXF 393 renal
# [17] = system: OVCAR-8 ovarian
# [18] = system: SNB-19 CNS
# [19] = system: M14 melanoma
# [20] = system: OVCAR-3 ovarian
# [21] = system: KM12 colon
# [22] = system: SF-268 CNS
# [23] = system: DU-145 prostate
# [24] = system: SF-539 CNS
# [25] = system: HT29 colon
# [26] = system: OVCAR-5 ovarian
# [27] = system: MDA-MB-435 melanoma
# [28] = system: MOLT-4 leukemia
# [29] = system: T-47D breast
# [30] = system: U251 glioblastoma
# [31] = system: 786-0 renal
# [32] = system: BT-549 breast
# [33] = system: UACC-62 melanoma
# [34] = system: NCI-H226 lung
# [35] = system: SNB-75 CNS
# [36] = system: SK-MEL-5 melanoma
# [37] = system: NCI-H460 NSCLC
# [38] = system: COLO 205 colon
# [39] = system: HS 578T breast
# [40] = system: NCI-H23 lung
# [41] = system: HOP-92 NSCLC
# [42] = system: UACC-257 melanoma
# [43] = system: SK-MEL-28 melanoma
# [44] = system: SN12C renal
# [45] = system: SR leukemia
# [46] = system: SK-MEL-2 melanoma
# [47] = system: SF-295 CNS
# [48] = system: EKVX NSCLC
# [49] = system: MCF7 breast
# [50] = system: UO-31 renal
# [51] = system: SW-620 colon
# [52] = system: PC-3 prostate
# [53] = system: CAKI-1 renal
# [54] = system: SK-OV-3 ovarian
# [55] = system: HCT-15 colon
smiles,measurement,setting,value
COc1cccc2c1nc(C(F)F)n2-c1nc(-c2ccc(NS(=O)(=O)CCN(C)C)cc2)nc(N2CCOCC2)n1,GI50,[1],0.171 µM
same,TGI,[1],0.961 µM
same,GI50,[2],0.116 µM
same,TGI,[2],1.1 µM
same,GI50,[3],0.319 µM
same,TGI,[3],1.8 µM
same,GI50,[4],0.0249 µM
same,TGI,[4],0.0963 µM
same,GI50,[5],0.151 µM
same,TGI,[5],1.09 µM
same,GI50,[6],0.144 µM
same,TGI,[6],1.05 µM
same,GI50,[7],0.144 µM
same,TGI,[7],1.55 µM
same,GI50,[8],0.297 µM
same,TGI,[8],1.26 µM
same,GI50,[9],0.127 µM
same,TGI,[9],0.874 µM
same,GI50,[10],0.634 µM
same,TGI,[10],1.95 µM
same,GI50,[11],0.127 µM
same,TGI,[11],1.22 µM
same,GI50,[12],0.0987 µM
same,TGI,[12],0.689 µM
same,GI50,[13],0.285 µM
same,TGI,[13],1.42 µM
same,GI50,[14],0.32 µM
same,TGI,[14],1.51 µM
same,GI50,[15],0.0762 µM
same,TGI,[15],0.431 µM
same,GI50,[16],0.0224 µM
same,TGI,[16],0.364 µM
same,GI50,[17],0.323 µM
same,TGI,[17],1.59 µM
same,GI50,[18],3.8 µM
same,TGI,[18],22.1 µM
same,GI50,[19],0.39 µM
same,TGI,[19],1.71 µM
same,GI50,[20],0.138 µM
same,TGI,[20],1.11 µM
same,GI50,[21],0.11 µM
same,TGI,[21],1.22 µM
same,GI50,[22],0.374 µM
same,TGI,[22],1.78 µM
same,GI50,[23],0.263 µM
same,TGI,[23],1.39 µM
same,GI50,[24],0.179 µM
same,TGI,[24],1.23 µM
same,GI50,[25],0.238 µM
same,TGI,[25],1.47 µM
same,GI50,[26],0.266 µM
same,TGI,[26],5.44 µM
same,GI50,[27],0.255 µM
same,TGI,[27],1.39 µM
same,GI50,[28],0.0468 µM
same,TGI,[28],0.176 µM
same,GI50,[29],0.024 µM
same,TGI,[29],0.12 µM
same,GI50,[30],1.02 µM
same,TGI,[30],2.2 µM
same,GI50,[31],0.491 µM
same,TGI,[31],1.69 µM
same,GI50,[32],0.25 µM
same,TGI,[32],1.4 µM
same,GI50,[33],0.206 µM
same,TGI,[33],1.25 µM
same,GI50,[34],0.195 µM
same,TGI,[34],0.873 µM
same,GI50,[35],0.0296 µM
same,TGI,[35],0.361 µM
same,GI50,[36],0.0938 µM
same,TGI,[36],0.371 µM
same,GI50,[37],0.302 µM
same,TGI,[37],1.55 µM
same,GI50,[38],0.219 µM
same,TGI,[38],1.1 µM
same,GI50,[39],0.0921 µM
same,TGI,[39],0.377 µM
same,GI50,[40],0.148 µM
same,TGI,[40],1.04 µM
same,GI50,[41],0.167 µM
same,TGI,[41],0.998 µM
same,GI50,[42],0.292 µM
same,TGI,[42],1.36 µM
same,GI50,[43],0.191 µM
same,TGI,[43],17.1 µM
same,GI50,[44],0.229 µM
same,TGI,[44],12.4 µM
same,GI50,[45],0.153 µM
same,TGI,[45],0.408 µM
same,GI50,[46],0.282 µM
same,TGI,[46],1.54 µM
same,GI50,[47],0.161 µM
same,TGI,[47],1.1 µM
same,GI50,[48],0.0539 µM
same,TGI,[48],0.426 µM
same,GI50,[49],0.0213 µM
same,TGI,[49],0.299 µM
same,GI50,[50],0.125 µM
same,TGI,[50],0.384 µM
same,GI50,[51],0.418 µM
same,TGI,[51],1.78 µM
same,GI50,[52],0.122 µM
same,TGI,[52],1.2 µM
same,GI50,[53],0.2 µM
same,TGI,[53],1.42 µM
same,GI50,[54],0.0835 µM
same,TGI,[54],0.362 µM
same,GI50,[55],0.3 µM
same,TGI,[55],1.45 µM
